Assays:
[1] = tested on: C2C12 myotubes; assay: Glucose utilization (extracellular acidification response to glucose injection) in C2C12 myotubes / muscle cells; format: cell-based; details: C2C12 myotubes; leucine alone
Protocol: Glucose utilization was measured as extracellular acidification response to glucose injection. *p=0.04. […] Treatment with 0.5 mM leucine corresponds to a circulating level of the same molarity achieved by administering about 1,125 mg of dietary leucine to a human subject. Treatment with 0.25 mM leucine corresponds to a circulating level of the same molarity achieved by administering about 300 mg of dietary leucine to a human subject.

[2] = tested on: C2C12 myotubes; assay: Fatty acid oxidation (O2 consumption response to palmitate injection) in C2C12 myotubes / muscle cells; format: cell-based; details: C2C12 myotubes; sildenafil 1 nM (change from baseline) or leucine 0.5 mM alone
Protocol: Fatty acid oxidation was measured as O2 consumption response to palmitate injection and is expressed as % change from pre-injection baseline. […] Data expressed as % change from control value. *p=0.013; **p=0.015. The output of the pathways can be measured using one or more methods, disclosed herein and/or known in the art. […] Mitochondrial biogenesis can be measured using a mitochondrial probe by using fluorescence. AMPK activity can be determined by measuring AMPK phosphorylation via an ELISA assay or by Western blot. Sirt1 activity can be determined by measuring deacetylation of a substrate, which can be detected using a fluorophore. […] Treatment with 0.5 mM leucine corresponds to a circulating level of the same molarity achieved by administering about 1,125 mg of dietary leucine to a human subject. Treatment with 0.25 mM leucine corresponds to a circulating level of the same molarity achieved by administering about 300 mg of dietary leucine to a human subject.

[3] = tested on: 3T3-L1 adipocytes; assay: Fatty acid oxidation in 3T3-L1 adipocytes / adipocytes; format: cell-based; details: 3T3-L1 adipocytes; leucine 0.5 mM or HMB 5 μM alone; p<0.05
Excerpt: (§1) Data expressed as % change from control value.*p<0.05. The output of the pathways can be measured using one or more methods, disclosed herein and/or known in the art. […] Mitochondrial biogenesis can be measured using a mitochondrial probe by using fluorescence. AMPK activity can be determined by measuring AMPK phosphorylation via an ELISA assay or by Western blot. Sirt1 activity can be determined by measuring deacetylation of a substrate, which can be detected using a fluorophore. […] Treatment with 0.5 mM leucine corresponds to a circulating level of the same molarity achieved by administering about 1,125 mg of dietary leucine to a human subject. Treatment with 0.25 mM leucine corresponds to a circulating level of the same molarity achieved by administering about 300 mg of dietary leucine to a human subject.

[4] = tested on: diet-induced obese mouse; assay: Fasting blood glucose, insulin and HOMAIR in the diet-induced obese mouse; format: in vivo; details: 6 week treatment
Protocol: The interactive effects of icariin, a flavanol with specific PDE5 inhibitory properties, on glycemia and insulin sensitivity were assessed in the diet-induced obese mouse, which can be used as a murine model of type 2 diabetes. Male C57/BL6 mice were placed on standard low-fat chow (control; 10% energy from fat) or high fat (60% energy from fat, Research Diets # D12492, Research Diets, Inc, New Brunswick, N.J.) at six weeks of age to induce insulin resistance. […] The animals were then randomized to the following diets for an additional six weeks, with 10 animals per group: Low fat diet (LFD) control; High fat diet (HFD) control; HFD+leucine (24 g/kg diet, a two-fold increase over control levels)1 HFD+leucine (24 g/kg diet)+icariin (25 mg/kg diet). […] Mice were fasted overnight (˜16 hours) prior to measurement of fasting blood glucose, insulin and glucose tolerance. Glucose tolerance was determined following measurement of fasting glucose via intraperitoneal administration of glucose (1.2 g/kg body weight) followed by blood glucose measurement at 15, 30, 60, 90 and 120 minutes. Post-prandial glucose was measured within one hour of cessation of eating. Insulin tolerance was measured via an insulin tolerance test (ITT). Food was removed 4-6 hours prior to ITT, and baseline blood glucose measured. The mice were then injected intraperitoneally with insulin (1.2 U/kg body weight) and blood glucose was measured 15, 30, 60, 90 and 120 minutes following insulin injection. The homeostasis model assessment of insulin resistance (HOMAIR) was used as a screening index of changes in insulin sensitivity. HOMAIR is calculated via standard formula from fasting plasma insulin and glucose as follows: HOMAIR=[Insulin (uU/mL)×glucose (mM)]/22.5. The plasma glucose and insulin concentrations were measured using the Glucose Assay Kit from Biovision (Milpitas, Calif.) and the Insulin kit from Millipore (Billerica, Mass.), respectively. CRP levels in plasma were determined by ELISA (CRP: Life Diagnostics, West Chester, Pa.).

[5] = tested on: diet-induced obese mouse; assay: Liver mass in the diet-induced obese mouse; format: in vivo; details: 6 week treatment
Protocol: The interactive effects of icariin, a flavanol with specific PDE5 inhibitory properties, on glycemia and insulin sensitivity were assessed in the diet-induced obese mouse, which can be used as a murine model of type 2 diabetes. Male C57/BL6 mice were placed on standard low-fat chow (control; 10% energy from fat) or high fat (60% energy from fat, Research Diets # D12492, Research Diets, Inc, New Brunswick, N.J.) at six weeks of age to induce insulin resistance. […] The animals were then randomized to the following diets for an additional six weeks, with 10 animals per group: Low fat diet (LFD) control; High fat diet (HFD) control; HFD+leucine (24 g/kg diet, a two-fold increase over control levels)1 HFD+leucine (24 g/kg diet)+icariin (25 mg/kg diet). […] A chronic high fat diet is associated with other deleterious consequences. For example, a chronic high fat diet can increase liver mass, likely resulting from fatty accumulation in the liver. Chronic high fat feeding is also associated with chronic inflammation, which can contribute to a number of diseases. To determine the effects of leucine or leucine+icariin administration on additional consequences of high fat feeding, liver mass and C-reactive protein (a biomarker of inflammation) were assessed in all experimental groups at the end of the 6 week study. […] HFD, FIG. 26). […]

[6] = tested on: C2C12 myotubes; assay: Mitochondrial biogenesis measured as mitochondrial mass in C2C12 myotubes; format: cell-based; details: C2C12 cells treated with leucine alone; p<0.05
Protocol: as §1, with “The” for “Data expressed as % change from control value.*p<0.05. The”

leucine
glucose utilization, agent alone [1]: 9.3% | fatty acid oxidation, agent alone [2]: 73% | fatty acid oxidation, agent alone [3]: 27% | reduction in HOMAIR vs. untreated HFD mice [4]: ~30% | reduction in circulating insulin during fasting vs. untreated HFD mice [4]: ~25% | reduction in fasting glucose vs. untreated HFD mice [4]: ~20% | reduction in liver mass vs. untreated HFD mice [5]: ~10% | mitochondrial biomass [6]: 22.05+/−0.4 AFU/μg protein
